The source of these data is US20100087649A1, “QUINOLINONE DERIVATIVES” (priority 2006, published 2010).

In data set [1] the test system is wild-type HIV-IIIB strain. Briefly: Antiviral analysis EGFP: anti-HIV activity in MT4 LTR-EGFP cells. The class given is cell-based, HIV-1. The settings on record: Human immunodeficiency virus 1, 72 h, fluorescence of HIV-infected cells reduced by 50%, three days after infection. The procedure, abridged: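 MT4 T-cells carrying an HIV-1 LTR-driven EGFP reporter were infected with HIV-IIIB; fluorescence was measured by scanning microscope image analysis three days post-infection. EC50 (μM) is the concentration cutting infected-cell fluorescence by 50%; CC50 is the same on mock-infected cells.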

Data set [2] in a line: Cytotoxicity in mock-infected MT4 CMV-EGFP cells. Type of data set: cell-based, human. The conditions noted are these: human, fluorescence reduced by 50%.

Each structure is given as a SMILES string.

In general, EC50 refers to the concentration giving half of the maximal effect. The low end stands for an effect from little substance, the high end for a need for much substance. As a reminder, the CC50 is the concentration giving 50% cytotoxicity. The low end stands for greater toxicity to the cells, the high end for lower toxicity to the cells. In data set [1], `N#Cc1c(N)c2ccccc2n(-c2ccc([N+](=O)[O-])cc2)c1=O` [compound 101] showed an EC50 of more than 32 µM. Further, in data set [2], the CC50 at 3 days was more than 32 µM.
Molecule `Cc1c(C#N)c(=O)n(-c2ccc([N+](=O)[O-])cc2)c2ccccc12` [compound 7] registered an EC50 in data set [1] of 9.34 µM. Besides, in data set [2], the CC50 at 3 days was more than 100 µM.
The corresponding values for `N#Cc1cc2ccc(=O)[nH]c2n(-c2ccc([N+](=O)[O-])cc2)c1=O` [compound 100] are more than 32 µM and more than 32 µM.
On the same counts, the results for `COc1ccc2cc(C#N)c(=O)n(-c3ccc([N+](=O)[O-])cc3)c2c1` [compound 9] are 2.48 µM and more than 32 µM.
